The numbers were not newly measured in US20090047371A1, “PHARMACEUTICAL COMPOSITION COMPRISING CURCUMIN AND RESVERATROL AND USES THEREOF IN MEDICAL FIELD” (SAFI INVESTMENT HOLDING AG, priority 2005, published 2009), which cites them from elsewhere.

The series concerns hair loss. Conditions: many cases in India and in Europe where Curcumin has been employed.

`COc1cc(/C=C/C(=O)CC(=O)/C=C/c2ccc(O)c(OC)c2)ccc1O` [Curcumin, curcumin]: the effect on hair result is given as “any effect on hair has never been reported”.
